This test relates to BDF1 mice, P388 leukemia ip, median survival T/C. Kind of test: NCI In Vivo Anticancer Drug Screen. Data for tumor model P388 Leukemia (intraperitoneal) in B6D2F1 (BDF1) mice. The settings on record: endpoint: median survival time, higher = longer survival. The essentials:
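Mice carrying the transplantable tumour receive compound or vehicle. Survival is followed in each arm, and the treated measure is divided by the vehicle measure.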

The mark [1] stands for this setting: dose: 50.0 mg/kg/injection, schedule: Q04DX003 (ip), vehicle: saline with Tween-80.
Setting [2] is: dose: 100.0 mg/kg/injection, schedule: Q01DX009 (ip), vehicle: saline with Tween-80.
[3] abbreviates: dose: 200.0 mg/kg/injection, schedule: Q01DX009 (ip), vehicle: Klucel (hydroxypropylcellulose) (HPC).
[4] abbreviates: dose: 50.0 mg/kg/injection, schedule: Q01DX009 (ip), vehicle: Klucel (hydroxypropylcellulose) (HPC).

Where “and” joins values, the source holds several entries; their conditions need not be identical. Equal entries are not always repeated. Toxic doses and inconclusive results are not listed.

As to `C(#CCN1CCCC1)CCCN1CCCC1`, the T/C was 111 % of control (dose: 25.0 mg/kg/injection, schedule: Q01DX009 (ip), vehicle: saline with Tween-80); 92 % of control (dose: 50.0 mg/kg/injection, schedule: Q01DX009 (ip), vehicle: saline with Tween-80); 91 % of control under setting [1]; 92 % of control under setting [2]; 91 % of control (dose: 100.0 mg/kg/injection, schedule: Q04DX003 (ip), vehicle: saline with Tween-80).

Consider `Oc1ccc(N=Cc2ccccc2O)cc1`, for which the T/C is, setting by setting: (dose: 100.0 mg/kg/injection, schedule: Q01DX009 (ip), vehicle: saline) 108 % of control; (dose: 100.0 mg/kg/injection, schedule: Q04DX003 (ip), vehicle: saline) 105 % of control; (dose: 200.0 mg/kg/injection, schedule: Q04DX003 (ip), vehicle: saline) 100 % of control; (dose: 400.0 mg/kg/injection, schedule: Q04DX003 (ip), vehicle: saline) 110 % of control.

In the case of `ClC1(c2ccccc2)c2ccc(Br)cc2-c2cc(Br)ccc21`, the T/C by setting is: (dose: 66.0 mg/kg/injection, schedule: Q01DX009 (ip), vehicle: saline with Tween-80) 100 % of control; under setting [2], 121 % of control; under setting [3], 88 % of control.

As to `CCS(=O)(=O)C(Br)CBr` (centres undefined), the T/C (dose: 25.0 mg/kg/injection, schedule: Q01DX009 (ip), vehicle: Klucel (hydroxypropylcellulose) (HPC)) was 114 % of control; the T/C under setting [4] is 114 % of control; the T/C (dose: 100.0 mg/kg/injection, schedule: Q01DX009 (ip), vehicle: Klucel (hydroxypropylcellulose) (HPC)) was 105 % of control and 107 % of control.

For `COc1ccc2nc3cc(Cl)ccc3c(NCCO)c2c1`, the T/C is 100 % of control (dose: 37.5 mg/kg/injection, schedule: Q01DX010 (ip), vehicle: saline); 100 % of control (dose: 75.0 mg/kg/injection, schedule: Q01DX010 (ip), vehicle: saline); 100 % of control (dose: 150.0 mg/kg/injection, schedule: Q01DX010 (ip), vehicle: saline).

For `CC1(C)CCCC2(C)C3CCC(C31)C2OC(=O)c1ccc([N+](=O)[O-])cc1` (centres undefined), the T/C (dose: 50.0 mg/kg/injection, schedule: Q01DX001 (ip), vehicle: saline with Tween-80) was 100 % of control; the T/C (dose: 100.0 mg/kg/injection, schedule: Q01DX001 (ip), vehicle: saline with Tween-80) was 100 % of control; the T/C (dose: 200.0 mg/kg/injection, schedule: Q01DX001 (ip), vehicle: saline with Tween-80) is 105 % of control.

In the case of `CCc1cc2c(cc1C(=O)/C=C\C(=O)O)C(C)(C)CCC2(C)C`, the T/C is, setting by setting: (dose: 2.5 mg/kg/injection, schedule: Q01DX009 (ip), vehicle: Klucel (hydroxypropylcellulose) (HPC)) 102 % of control; (dose: 5.0 mg/kg/injection, schedule: Q01DX009 (ip), vehicle: Klucel (hydroxypropylcellulose) (HPC)) 99 % of control; (dose: 10.0 mg/kg/injection, schedule: Q01DX009 (ip), vehicle: Klucel (hydroxypropylcellulose) (HPC)) 100 % of control.

Consider `COc1ccc(CN2CC(C)NC(C)C2)cc1` (centres undefined), for which the T/C is, setting by setting: (dose: 3.12 mg/kg/injection, schedule: Q01DX009 (ip), vehicle: water) 108 % of control; (dose: 6.25 mg/kg/injection, schedule: Q01DX009 (ip), vehicle: water) 103 % of control; (dose: 12.5 mg/kg/injection, schedule: Q01DX009 (ip), vehicle: water) 95 % of control; (dose: 25.0 mg/kg/injection, schedule: Q01DX009 (ip), vehicle: water) 91 % of control; (dose: 50.0 mg/kg/injection, schedule: Q01DX009 (ip), vehicle: water) 117 % of control; (dose: 100.0 mg/kg/injection, schedule: Q01DX009 (ip), vehicle: water) 100 % of control. In addition, the T/C runs as follows: (dose: 100.0 mg/kg/injection, schedule: Q04DX003 (ip), vehicle: water) 99 % of control; (dose: 200.0 mg/kg/injection, schedule: Q01DX009 (ip), vehicle: water) 98 % of control; (dose: 300.0 mg/kg/injection, schedule: Q01DX009 (ip), vehicle: water) 117 % of control; (dose: 400.0 mg/kg/injection, schedule: Q01DX009 (ip), vehicle: water) 97 % of control.

With `COc1cc2c(cc1OC)C(OC)N(C)c1c-2ccc2cc3c(cc12)OCO3` (centres undefined), the T/C (dose: 1.1 mg/kg/injection, schedule: Q01DX009 (ip), vehicle: water) is 118 % of control; the T/C (dose: 1.4 mg/kg/injection, schedule: Q04DX003 (ip), vehicle: saline with Tween-80) was 122 % of control; the T/C (dose: 1.46 mg/kg/injection, schedule: Q01DX009 (ip), vehicle: saline with Tween-80) was 160 % of control; the T/C (dose: 2.2 mg/kg/injection, schedule: Q01DX009 (ip), vehicle: saline with Tween-80) was 151 % of control; the T/C (dose: 2.5 mg/kg/injection, schedule: Q01DX009 (ip), vehicle: water) was 181 % of control; the T/C (dose: 3.3 mg/kg/injection, schedule: Q01DX009 (ip), vehicle: saline with Tween-80) is 169 % of control. The T/C (dose: 4.4 mg/kg/injection, schedule: Q01DX009 (ip), vehicle: saline with Tween-80) was 167 % of control; the T/C (dose: 5.0 mg/kg/injection, schedule: Q01DX009 (ip), vehicle: saline with Tween-80) was 176 % of control; the T/C (dose: 5.0 mg/kg/injection, schedule: Q01DX009 (ip), vehicle: water) was 159 % of control and 190 % of control; the T/C (dose: 5.0 mg/kg/injection, schedule: Q04DX003 (ip), vehicle: saline with Tween-80) was 150 % of control; the T/C (dose: 6.6 mg/kg/injection, schedule: Q01DX009 (ip), vehicle: saline with Tween-80) is 216 % of control; the T/C (dose: 10.0 mg/kg/injection, schedule: Q01DX009 (ip), vehicle: saline with Tween-80) was 191 % of control and 218 % of control. In addition, the T/C (dose: 10.0 mg/kg/injection, schedule: Q01DX009 (ip), vehicle: saline) was 170 % of control; the T/C (dose: 10.0 mg/kg/injection, schedule: Q01DX009 (ip), vehicle: water) was 177 % of control and 200 % of control; the T/C (dose: 10.0 mg/kg/injection, schedule: Q04DX003 (ip), vehicle: other) is 163 % of control; the T/C (dose: 14.6 mg/kg/injection, schedule: Q04DX003 (ip), vehicle: saline with Tween-80) was 168 % of control; the T/C (dose: 15.0 mg/kg/injection, schedule: Q01DX009 (ip), vehicle: saline with Tween-80) was 188 % of control; the T/C (dose: 15.0 mg/kg/injection, schedule: Q04DX003 (ip), vehicle: other) is 200 % of control. In addition, the T/C reads like this: (dose: 20.0 mg/kg/injection, schedule: Q01DX009 (ip), vehicle: saline with Tween-80) 220 % of control and 165 % of control; (dose: 20.0 mg/kg/injection, schedule: Q01DX009 (ip), vehicle: saline) 195 % of control; (dose: 20.0 mg/kg/injection, schedule: Q01DX009 (ip), vehicle: water) 195 % of control and 220 % of control; (dose: 20.0 mg/kg/injection, schedule: Q04DX003 (ip), vehicle: saline) 165 % of control; (dose: 22.0 mg/kg/injection, schedule: Q04DX003 (ip), vehicle: saline with Tween-80) 168 % of control; (dose: 33.0 mg/kg/injection, schedule: Q04DX003 (ip), vehicle: saline with Tween-80) 263 % of control. Further, the T/C (dose: 40.0 mg/kg/injection, schedule: Q01DX009 (ip), vehicle: saline with Tween-80) was 160 % of control and 175 % of control; the T/C (dose: 40.0 mg/kg/injection, schedule: Q01DX009 (ip), vehicle: saline) was 195 % of control; the T/C (dose: 40.0 mg/kg/injection, schedule: Q01DX009 (ip), vehicle: water) was 186 % of control and 200 % of control; the T/C (dose: 40.0 mg/kg/injection, schedule: Q04DX003 (ip), vehicle: saline) is 170 % of control; the T/C under setting [4] was 205 % of control; the T/C (dose: 50.0 mg/kg/injection, schedule: Q04DX002 (ip), vehicle: Klucel (hydroxypropylcellulose) (HPC)) is 106 % of control. Besides, the T/C by setting is: under setting [1], 231 % of control; (dose: 52.0 mg/kg/injection, schedule: Q01DX009 (ip), vehicle: saline with Tween-80) 181 % of control; (dose: 80.0 mg/kg/injection, schedule: Q01DX009 (ip), vehicle: saline) 180 % of control; (dose: 80.0 mg/kg/injection, schedule: Q01DX009 (ip), vehicle: water) 109 % of control; (dose: 80.0 mg/kg/injection, schedule: Q04DX003 (ip), vehicle: saline) 180 % of control; (dose: 100.0 mg/kg/injection, schedule: Q04DX002 (ip), vehicle: Klucel (hydroxypropylcellulose) (HPC)) 172 % of control. Besides, the T/C (dose: 120.0 mg/kg/injection, schedule: Q01DX009 (ip), vehicle: water) was 113 % of control; the T/C (dose: 180.0 mg/kg/injection, schedule: Q01DX009 (ip), vehicle: saline with Tween-80) was 104 % of control; the T/C under setting [3] was 200 % of control; the T/C (dose: 400.0 mg/kg/injection, schedule: Q04DX002 (ip), vehicle: Klucel (hydroxypropylcellulose) (HPC)) is 190 % of control.

(Values after PubChem BioAssay AID328 (DTP/NCI, 2004).)
